Laboratory results as given in ChEMBL document CHEMBL1201862, “PubChem BioAssay data set” (2004).
Several values for one entry are separate records, joined by “and”; a condition that tells them apart may be missing. Identical values can stand only once.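 Cultured in 96-well plates, cells were exposed to test compound for 48 hours across five concentrations. GI50 = concentration required for 50% inhibition of growth.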 Activity calls are given as the source filed them. Cut-off read from the data, not from the text of the source: active = GI50 up to about 1.1 µM and inactive = higher.

Key:
Assay in all cases: DTP human tumour cell line panel, 48 h
[1] = system: CAKI-1
[2] = system: OVCAR-5
[3] = system: COLO 205
[4] = system: SNB-19
[5] = system: PC-3
[6] = system: MDA-MB-231
[7] = system: NCI/ADR-RES
[8] = system: OVCAR-4
[9] = system: SF-539
[10] = system: HL-60
[11] = system: OVCAR-8
[12] = system: HCT-116
[13] = system: SF-295
[14] = system: HT-29
[15] = system: OVCAR-3
[16] = system: CCRF-CEM
[17] = system: MOLT-4
[18] = system: SNB-75
[19] = system: RXF 393
[20] = system: HCC 2998

Measured: GI50

COc1cc(/C=C\c2nnc(/C=C\c3ccc(O)c(OC)c3)s2)ccc1O
inactive: [1] 4.62 µM | [2] 22.2 µM | [3] 13.8 µM | [4] 4.58 µM | [5] 3.94 µM | [6] 4.94 µM | [7] 1.6 µM | [8] 2.61 µM | [9] 2.44 µM | [10] 1.64 µM | [11] 3.78 µM | [12] 2.36 µM | [13] 3.48 µM | [14] 7.31 µM | [15] 1.91 µM | [16] 2.18 µM | [17] 1.74 µM | [18] 2.33 µM | [19] 1.16 µM | [20] 3.48 µM

C=CCn1c2c(c3ccccc3c1=O)C(=O)c1ccccc1-2
inactive: [1] > 100 µM | [2] > 100 µM | [3] > 100 µM | [4] 73.8 µM | [5] > 100 µM | [6] > 85.3 µM | [7] > 100 µM | [8] 54.8 µM | [9] > 70.6 µM | [10] 3.41 µM | [11] > 88.9 µM | [12] > 26.2 µM | [13] > 77.8 µM | [14] > 100 µM | [15] > 100 µM | [16] > 100 µM | [17] 3.4 µM | [18] > 81.5 µM | [19] 15.9 µM | [20] > 100 µM

CCOC(=O)C1C(C)C2(C#N)C(=N)OC1(C)C2(C#N)C#N (centres undefined)
inactive: [1] 53.6 µM | [2] > 100 µM | [3] > 100 µM | [4] 79.3 µM | [5] > 100 µM | [6] > 100 µM | [7] > 100 µM | [9] 47.2 µM | [10] 21.8 µM | [11] > 100 µM | [12] 76.7 µM | [13] > 100 µM | [14] 58.9 µM | [18] 27.6 µM | [19] 25.8 µM | [20] > 10 µM

N#CC(C#N)=C1CCCS(=O)(=O)c2ccccc21
inactive: [1] > 100 µM | [2] > 100 µM | [3] > 100 µM | [4] > 100 µM | [5] > 100 µM | [6] > 100 µM | [7] > 100 µM | [8] > 100 µM | [9] > 100 µM | [10] > 100 µM | [11] > 100 µM | [12] > 100 µM | [13] > 100 µM | [14] > 100 µM | [15] > 100 µM | [16] > 100 µM | [17] > 100 µM | [18] > 100 µM | [19] > 100 µM | [20] > 100 µM

Cc1c(/C=N/NC(=S)N2CCCCC2)c(=O)n(-c2ccccc2)n1C
inactive: [1] 77.1 µM | [2] > 100 µM | [3] 29.9 µM | [4] 71.4 µM | [5] > 100 µM | [6] > 100 µM | [7] 28.9 µM | [9] > 100 µM | [10] 14 µM | [11] 42.8 µM | [12] 57.8 µM | [13] 40.7 µM | [14] 73.8 µM | [15] 48.4 µM | [16] 23.2 µM | [17] 31.3 µM | [18] > 100 µM | [19] 26.5 µM | [20] 75 µM

O=C(NN=C1NCCN1)c1ccco1
inactive: [2] > 100 µM | [3] > 100 µM | [4] > 100 µM | [5] > 100 µM | [6] > 100 µM | [7] > 100 µM | [8] > 100 µM | [9] > 100 µM | [10] > 100 µM | [11] > 100 µM | [12] > 100 µM | [13] > 100 µM | [14] > 100 µM | [15] > 100 µM | [16] > 100 µM | [17] > 100 µM | [18] > 100 µM | [19] > 100 µM | [20] > 100 µM

CC(=O)OCC1OC(n2c(-c3ccccc3)c(C(C)=O)c(-c3cccc4ccccc34)c(C#N)c2=S)C(OC(C)=O)C(OC(C)=O)C1OC(C)=O (centres undefined)
inactive: [2] > 100 µM | [3] > 100 µM | [4] > 100 µM | [5] 62.2 µM | [6] > 100 µM and 54.1 µM | [7] > 100 µM | [8] 28.7 µM and 17.9 µM | [9] > 100 µM | [10] > 100 µM | [11] > 100 µM | [12] > 100 µM | [13] > 100 µM | [14] > 100 µM | [15] > 100 µM | [16] > 100 µM | [17] > 100 µM | [19] > 100 µM | [20] > 100 µM

Cc1cc2nc(N)n[n+]([O-])c2cc1C
inactive: [1] > 100 µM | [2] > 100 µM | [3] > 100 µM | [4] > 100 µM | [5] > 100 µM | [6] > 100 µM | [7] > 100 µM | [9] > 100 µM | [10] > 100 µM | [11] > 100 µM | [12] > 100 µM | [13] > 100 µM | [14] > 100 µM | [16] > 100 µM | [17] > 100 µM | [18] > 10 µM | [19] > 100 µM | [20] > 100 µM

CN(C)N1C(=C(C#N)C#N)C(c2ccccc2)CC1C#N (centres undefined)
inactive: [1] > 100 µM | [2] > 100 µM | [3] > 100 µM | [4] > 100 µM | [5] > 100 µM | [6] > 100 µM | [7] > 100 µM | [9] > 100 µM | [10] > 100 µM | [11] > 100 µM | [12] > 100 µM | [13] > 100 µM | [14] > 100 µM | [16] > 100 µM | [17] > 100 µM | [18] 57.8 µM | [19] > 100 µM | [20] > 100 µM

O=C1NC(=O)/C(=C/c2ccc(S(=O)(=O)N/N=C/c3ccc(Cl)cc3)cc2)N1
inactive: [1] > 100 µM | [2] > 100 µM | [3] > 100 µM | [4] > 100 µM | [5] > 100 µM | [6] > 100 µM | [7] > 100 µM | [8] > 100 µM | [10] 72.9 µM | [11] > 100 µM | [12] > 100 µM | [13] > 100 µM | [14] > 100 µM | [15] 65.9 µM | [16] > 100 µM | [17] > 100 µM | [18] > 100 µM | [19] > 100 µM | [20] > 100 µM

COc1ccc(-n2c(=O)c3nc[nH]c3n(-c3ccc(OC)cc3)c2=S)cc1
inactive: [1] > 100 µM | [2] > 100 µM | [3] > 100 µM | [5] > 100 µM | [6] > 100 µM | [7] > 100 µM | [8] > 100 µM | [9] > 100 µM | [10] > 100 µM | [11] > 100 µM | [12] > 100 µM | [13] > 100 µM | [14] > 100 µM | [15] > 100 µM | [16] > 100 µM | [17] > 100 µM | [18] > 100 µM | [19] > 100 µM | [20] > 100 µM

CN1CC=C(C#CC(C)(C)O)CC1
inactive: [1] > 37.5 µM | [2] > 37.5 µM | [3] > 37.5 µM | [4] > 37.5 µM | [5] > 37.5 µM | [6] > 37.5 µM | [7] > 37.5 µM | [8] > 37.5 µM | [10] > 37.5 µM | [11] > 37.5 µM | [12] > 37.5 µM | [13] > 37.5 µM | [14] > 37.5 µM | [15] > 37.5 µM | [16] > 37.5 µM | [17] > 37.5 µM | [18] > 37.5 µM | [19] > 37.5 µM | [20] > 37.5 µM

O=C1c2ccccc2C(=O)N1NC1=NCCN1
inactive: [1] > 100 µM | [2] > 100 µM | [3] > 100 µM | [4] > 100 µM | [5] > 100 µM | [6] > 100 µM | [7] > 100 µM | [8] > 100 µM | [9] > 100 µM | [10] > 100 µM | [11] > 100 µM | [12] > 100 µM | [13] > 100 µM | [14] > 100 µM | [15] > 100 µM | [16] > 100 µM | [17] > 100 µM | [19] > 100 µM | [20] > 100 µM

COc1ccc(/C=C/C(=O)c2ccc(OC(=O)/C=C/c3ccccc3)cc2)cc1
inactive: [1] 23.3 µM | [2] > 85.7 µM | [3] 32.2 µM | [4] 21.8 µM | [5] 25.7 µM | [6] 27.5 µM | [7] 31.2 µM | [8] 24.4 µM | [9] 11.5 µM | [10] 4.08 µM | [11] 26.7 µM | [12] 18.7 µM | [13] 25.1 µM | [14] 18.5 µM | [15] 32 µM | [16] 5.21 µM | [17] 16.6 µM | [18] 28.9 µM | [19] 41.7 µM | [20] 16.2 µM
